Test results taken from publication PMC10685318, “Trans-cyclosulfamidate mannose-configured cyclitol allows isoform-dependent inhibition of GH47 α-D-mannosidases through a bump–hole strategy” (Chemical Science, 2023).

Biological target: T1, MAN2B2 (Homo sapiens, UniProt Q9Y2E5)
T1 construct: expressed in transfected cells
T1 sequence (Q9Y2E5 24-1009): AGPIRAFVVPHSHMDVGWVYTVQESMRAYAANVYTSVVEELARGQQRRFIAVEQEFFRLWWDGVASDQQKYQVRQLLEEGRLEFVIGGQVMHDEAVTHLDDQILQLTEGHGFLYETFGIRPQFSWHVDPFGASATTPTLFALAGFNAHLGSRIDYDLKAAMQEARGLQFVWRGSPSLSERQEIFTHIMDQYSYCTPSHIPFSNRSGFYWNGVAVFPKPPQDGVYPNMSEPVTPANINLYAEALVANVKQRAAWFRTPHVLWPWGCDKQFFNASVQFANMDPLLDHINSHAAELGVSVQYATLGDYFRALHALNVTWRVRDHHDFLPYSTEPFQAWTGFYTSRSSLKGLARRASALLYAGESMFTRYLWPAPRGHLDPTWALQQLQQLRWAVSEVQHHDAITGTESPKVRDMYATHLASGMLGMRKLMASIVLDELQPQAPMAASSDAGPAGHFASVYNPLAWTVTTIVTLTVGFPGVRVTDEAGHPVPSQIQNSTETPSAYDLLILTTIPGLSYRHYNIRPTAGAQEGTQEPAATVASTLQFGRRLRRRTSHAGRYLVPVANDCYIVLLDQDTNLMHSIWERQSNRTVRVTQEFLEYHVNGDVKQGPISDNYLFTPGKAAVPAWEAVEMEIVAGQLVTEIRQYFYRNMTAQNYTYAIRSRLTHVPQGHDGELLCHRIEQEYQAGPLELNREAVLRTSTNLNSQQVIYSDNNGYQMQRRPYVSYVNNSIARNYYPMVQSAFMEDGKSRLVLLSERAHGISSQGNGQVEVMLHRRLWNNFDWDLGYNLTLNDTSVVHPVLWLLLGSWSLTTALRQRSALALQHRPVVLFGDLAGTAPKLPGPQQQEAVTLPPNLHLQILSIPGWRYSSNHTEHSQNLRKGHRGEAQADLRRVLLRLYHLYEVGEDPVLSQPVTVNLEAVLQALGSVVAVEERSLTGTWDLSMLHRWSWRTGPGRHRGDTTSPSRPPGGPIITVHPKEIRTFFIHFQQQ
Assay: 4-MU-α-man activity assay in overexpressed cell lysates
Format: biochemical

Structure (SMILES): O=S1(=O)N[C@@H]2[C@@H](O)[C@@H](O)[C@H](O)[C@@H](CO)[C@H]2O1 [compound 6, 1,6-trans-manno-cyclosulfamidate]
- activity when the buffer was enriched with CoCl2 (CoCl2): no activity
- IC50 (Zn2+): > 1000 µM
